Earlier results as cited in article PMC6021394, “Novel haptens and monoclonal antibodies with subnanomolar affinity for a classical analytical target, ochratoxin A” (Scientific Reports, 2018).

## C[C@@H]1Cc2c(Cl)cc(C(=O)N[C@@H](Cc3ccccc3)C(=O)O)c(O)c2C(=O)O1 [OTA, Ochratoxin A]
European Food Safety Authority
  tolerable weekly intake: 120 ng/kg of body weight
Possibly carcinogenic to humans
  IARC carcinogenicity classification: group 2B
